Test results reported in article PMC9668928, “Zandelisib (ME-401) in Japanese patients with relapsed or refractory indolent non-Hodgkin’s lymphoma: an open-label, multicenter, dose-escalation phase 1 study” (International Journal of Hematology, 2022).

System: Japanese patients with R/R iNHL
Assay: Phase 1 dose-escalation study: safety and tolerability (TEAEs, DLTs)
Type: in vivo
Description: Japanese patients aged ≥ 20 years with R/R iNHL histologically confirmed as FL, nodal MZL, extra-nodal MZL of mucosa-associated lymphoid tissue, small lymphocytic lymphoma, lymphoplasmacytic lymphoma, Waldenström’s macroglobulinemia, or equivalent, according to World Health Organization classification, were eligible for this study. Other key eligibility criteria included being PI3K inhibitor therapy-naïve and an Eastern Cooperative Oncology Group performance status of 0 or 1. Further details of inclusion and exclusion criteria are provided in Supplementary Table 1.
This was a multicenter, open-label, dose-escalation, phase 1 study in Japan. All patients received oral zandelisib once daily at the same time each day, at least 1 h before or 2 h after a meal (CS: continuous schedule). Each treatment cycle was 28 days. Definitions of the DLTs described in this study can be found in Supplementary Table 2. The observation period for DLTs was from day 1 of Cycle 1 to day 1 of Cycle 2. Zandelisib was administered until disease progression or unacceptable toxicity. In the event of an AE, patients could be switched to IDT. In the case of disease progression while receiving IDT, patients could be switched back to CS per the investigator’s discretion.
A starting dose of 45 mg was set for investigating patient safety. This study adopted a standard 3 + 3 design. […] If DLTs occurred in 2 or more patients, the study was planned to be suspended pending a safety evaluation. If a DLT occurred in 1 patient, 3 further patients were added to cohort 1. If DLTs occurred in 0/3 or 1/6 patients in cohort 1, dosing in cohort 2 commenced (n = 6; 60 mg/day). If the incidence of DLTs in cohort 2 was ≤ 1/6, the maximum tolerated dose was not determined, and the dose in cohort 2 was to be selected as the recommended Japanese phase 2 dose.
The primary endpoint was the safety [number of patients with treatment-emergent adverse events (TEAEs), based on Common Terminology Criteria for Adverse Events version 5.0] and tolerability (including laboratory values, vital signs, and electrocardiogram performance) of zandelisib in Japanese patients. Hepatobiliary disorder, aspartate/alanine (AST/ALT) increased, diarrhea/colitis, organizing pneumonia, stomatitis, or rash were defined as irAEs in this manuscript. Secondary endpoints included PK (plasma concentrations and PK parameters) and the efficacy of zandelisib. […] The PK parameters for Cycle 1 day 1 and Cycle 2 day 1 were calculated for each patient by non-compartmental analysis. PK parameters included maximum plasma drug concentration (Cmax), area under the plasma concentration–time curve (AUC) from time zero to the last measurable point (AUC0–t), the AUC from time zero to infinity (AUC0-inf), and terminal half-life (t1/2).

CN1CCC(c2ccccc2CC(C)(C)Nc2nc(N3CCOCC3)nc(-n3c(C(F)F)nc4ccccc43)n2)CC1 [zandelisib]
TEAE Cytomegalovirus viremia, Grade ≥ 3 (Total, N = 9): 0 n (%) | TEAE Decreased appetite, All grades (Total, N = 9): 1 (11.1) n (%) | TEAE Decreased appetite, Grade ≥ 3 (Total, N = 9): 1 (11.1) n (%) | TEAE Diarrhea, All grades (Total, N = 9): 4 (44.4) n (%) | TEAE Diarrhea, Grade ≥ 3 (Total, N = 9): 3 (33.3) n (%) | TEAE Drug hypersensitivity, All grades (Total, N = 9): 1 (11.1) n (%) | TEAE Drug hypersensitivity, Grade ≥ 3 (Total, N = 9): 0 n (%) | TEAE Drug-induced liver injury, All grades (Total, N = 9): 1 (11.1) n (%) | TEAE Drug-induced liver injury, Grade ≥ 3 (Total, N = 9): 1 (11.1) n (%) | TEAE Dry eye, All grades (Total, N = 9): 1 (11.1) n (%) | TEAE Dry eye, Grade ≥ 3 (Total, N = 9): 0 n (%) | TEAE Dry skin, All grades (Total, N = 9): 2 (22.2) n (%) | TEAE Dry skin, Grade ≥ 3 (Total, N = 9): 0 n (%) | TEAE Dysgeusia, All grades (Total, N = 9): 1 (11.1) n (%) | TEAE Dysgeusia, Grade ≥ 3 (Total, N = 9): 0 n (%) | TEAE Dyspnea, All grades (Total, N = 9): 1 (11.1) n (%) | TEAE Dyspnea, Grade ≥ 3 (Total, N = 9): 1 (11.1) n (%) | TEAE Ear and labyrinth disorders (SOC), All grades (Total, N = 9): 1 (11.1) n (%) | TEAE Ear and labyrinth disorders (SOC), Grade ≥ 3 (Total, N = 9): 0 n (%) | TEAE Eczema, All grades (Total, N = 9): 1 (11.1) n (%) | TEAE Eczema, Grade ≥ 3 (Total, N = 9): 0 n (%) | TEAE Eosinophil count increased, All grades (Total, N = 9): 1 (11.1) n (%) | TEAE Eosinophil count increased, Grade ≥ 3 (Total, N = 9): 0 n (%) | TEAE Erythema multiforme, All grades (Total, N = 9): 1 (11.1) n (%) | TEAE Erythema multiforme, Grade ≥ 3 (Total, N = 9): 0 n (%) | TEAE Eye disorders (SOC), All grades (Total, N = 9): 2 (22.2) n (%) | TEAE Eye disorders (SOC), Grade ≥ 3 (Total, N = 9): 0 n (%) | TEAE Flank pain, All grades (Total, N = 9): 1 (11.1) n (%) | TEAE Flank pain, Grade ≥ 3 (Total, N = 9): 0 n (%) | TEAE GGT increased, All grades (Total, N = 9): 1 (11.1) n (%) | TEAE GGT increased, Grade ≥ 3 (Total, N = 9): 1 (11.1) n (%) | TEAE Gastrointestinal disorders (SOC), All grades (Total, N = 9): 6 (66.7) n (%) | TEAE Gastrointestinal disorders (SOC), Grade ≥ 3 (Total, N = 9): 4 (44.4) n (%) | TEAE General disorders and administration site conditions (SOC), All grades (Total, N = 9): 1 (11.1) n (%) | TEAE General disorders and administration site conditions (SOC), Grade ≥ 3 (Total, N = 9): 0 n (%) | TEAE Hepatic function abnormal, All grades (Total, N = 9): 2 (22.2) n (%) | TEAE Hepatic function abnormal, Grade ≥ 3 (Total, N = 9): 1 (11.1) n (%) | TEAE Hepatobiliary disorders (SOC), All grades (Total, N = 9): 3 (33.3) n (%) | TEAE Hepatobiliary disorders (SOC), Grade ≥ 3 (Total, N = 9): 2 (22.2) n (%) | TEAE Herpes simplex, All grades (Total, N = 9): 1 (11.1) n (%) | TEAE Herpes simplex, Grade ≥ 3 (Total, N = 9): 0 n (%) | TEAE Herpes zoster, All grades (Total, N = 9): 1 (11.1) n (%) | TEAE Herpes zoster, Grade ≥ 3 (Total, N = 9): 0 n (%) | TEAE Hypoesthesia, All grades (Total, N = 9): 1 (11.1) n (%) | TEAE Hypoesthesia, Grade ≥ 3 (Total, N = 9): 0 n (%) | TEAE Hypogammaglobulinemia, All grades (Total, N = 9): 2 (22.2) n (%) | TEAE Hypogammaglobulinemia, Grade ≥ 3 (Total, N = 9): 0 n (%) | TEAE Immune system disorders (SOC), All grades (Total, N = 9): 3 (33.3) n (%) | TEAE Immune system disorders (SOC), Grade ≥ 3 (Total, N = 9): 0 n (%) | TEAE Infections and infestations (SOC), All grades (Total, N = 9): 6 (66.7) n (%) | TEAE Infections and infestations (SOC), Grade ≥ 3 (Total, N = 9): 0 n (%) | TEAE Infusion site extravasation, All grades (Total, N = 9): 1 (11.1) n (%) | TEAE Infusion site extravasation, Grade ≥ 3 (Total, N = 9): 0 n (%) | TEAE Insomnia, All grades (Total, N = 9): 1 (11.1) n (%) | TEAE Insomnia, Grade ≥ 3 (Total, N = 9): 0 n (%) | TEAE Investigations (SOC), All grades (Total, N = 9): 9 (100.0) n (%) | TEAE Investigations (SOC), Grade ≥ 3 (Total, N = 9): 6 (66.7) n (%) | TEAE Joint effusion, All grades (Total, N = 9): 1 (11.1) n (%) | TEAE Joint effusion, Grade ≥ 3 (Total, N = 9): 0 n (%) | TEAE Lymphocyte count decreased, All grades (Total, N = 9): 3 (33.3) n (%) | TEAE Lymphocyte count decreased, Grade ≥ 3 (Total, N = 9): 1 (11.1) n (%) | TEAE Metabolism and nutrition disorders (SOC), All grades (Total, N = 9): 1 (11.1) n (%) | TEAE Metabolism and nutrition disorders (SOC), Grade ≥ 3 (Total, N = 9): 1 (11.1) n (%) | TEAE Muscle spasms, All grades (Total, N = 9): 1 (11.1) n (%) | TEAE Muscle spasms, Grade ≥ 3 (Total, N = 9): 0 n (%) | TEAE Musculoskeletal and connective tissue disorders (SOC), All grades (Total, N = 9): 4 (44.4) n (%) | TEAE Musculoskeletal and connective tissue disorders (SOC), Grade ≥ 3 (Total, N = 9): 0 n (%) | TEAE Nasopharyngitis, All grades (Total, N = 9): 5 (55.6) n (%) | TEAE Nasopharyngitis, Grade ≥ 3 (Total, N = 9): 0 n (%) | TEAE Nausea, All grades (Total, N = 9): 3 (33.3) n (%) | TEAE Nausea, Grade ≥ 3 (Total, N = 9): 0 n (%) | TEAE Nervous system disorders (SOC), All grades (Total, N = 9): 1 (11.1) n (%) | TEAE Nervous system disorders (SOC), Grade ≥ 3 (Total, N = 9): 0 n (%) | TEAE Neutrophil count decreased, All grades (Total, N = 9): 8 (88.9) n (%) | TEAE Neutrophil count decreased, Grade ≥ 3 (Total, N = 9): 5 (55.6) n (%) | TEAE Oral herpes, All grades (Total, N = 9): 1 (11.1) n (%) | TEAE Oral herpes, Grade ≥ 3 (Total, N = 9): 0 n (%) | TEAE Organizing pneumonia, All grades (Total, N = 9): 1 (11.1) n (%) | TEAE Organizing pneumonia, Grade ≥ 3 (Total, N = 9): 1 (11.1) n (%) | TEAE Oropharyngeal pain, All grades (Total, N = 9): 2 (22.2) n (%) | TEAE Oropharyngeal pain, Grade ≥ 3 (Total, N = 9): 0 n (%) | TEAE Pancreatitis, All grades (Total, N = 9): 1 (11.1) n (%) | TEAE Pancreatitis, Grade ≥ 3 (Total, N = 9): 1 (11.1) n (%) | TEAE Pharyngeal paresthesia, All grades (Total, N = 9): 1 (11.1) n (%) | TEAE Pharyngeal paresthesia, Grade ≥ 3 (Total, N = 9): 0 n (%) | TEAE Pruritus, All grades (Total, N = 9): 1 (11.1) n (%) | TEAE Pruritus, Grade ≥ 3 (Total, N = 9): 0 n (%) | TEAE Psychiatric disorders (SOC), All grades (Total, N = 9): 1 (11.1) n (%) | TEAE Psychiatric disorders (SOC), Grade ≥ 3 (Total, N = 9): 0 n (%) | TEAE Rash maculopapular, All grades (Total, N = 9): 5 (55.6) n (%) | TEAE Rash maculopapular, Grade ≥ 3 (Total, N = 9): 1 (11.1) n (%) | TEAE Rash, All grades (Total, N = 9): 4 (44.4) n (%) | TEAE Rash, Grade ≥ 3 (Total, N = 9): 0 n (%) | TEAE Renal and urinary disorders (SOC), All grades (Total, N = 9): 1 (11.1) n (%) | TEAE Renal and urinary disorders (SOC), Grade ≥ 3 (Total, N = 9): 0 n (%) | TEAE Renal impairment, All grades (Total, N = 9): 1 (11.1) n (%) | TEAE Renal impairment, Grade ≥ 3 (Total, N = 9): 0 n (%) | TEAE Respiratory, thoracic, and mediastinal disorders (SOC), All grades (Total, N = 9): 4 (44.4) n (%) | TEAE Respiratory, thoracic, and mediastinal disorders (SOC), Grade ≥ 3 (Total, N = 9): 1 (11.1) n (%) | TEAE Skin and subcutaneous tissue disorders (SOC), All grades (Total, N = 9): 9 (100.0) n (%) | TEAE Skin and subcutaneous tissue disorders (SOC), Grade ≥ 3 (Total, N = 9): 1 (11.1) n (%) | TEAE Stomatitis, All grades (Total, N = 9): 2 (22.2) n (%) | TEAE Stomatitis, Grade ≥ 3 (Total, N = 9): 1 (11.1) n (%) | TEAE Subcutaneous abscess, All grades (Total, N = 9): 1 (11.1) n (%) | TEAE Subcutaneous abscess, Grade ≥ 3 (Total, N = 9): 0 n (%) | TEAE Tinnitus, All grades (Total, N = 9): 1 (11.1) n (%) | TEAE Tinnitus, Grade ≥ 3 (Total, N = 9): 0 n (%) | TEAE Urticaria, All grades (Total, N = 9): 1 (11.1) n (%) | TEAE Urticaria, Grade ≥ 3 (Total, N = 9): 0 n (%) | TEAE Vomiting, All grades (Total, N = 9): 2 (22.2) n (%) | TEAE Vomiting, Grade ≥ 3 (Total, N = 9): 0 n (%) | TEAE WBC count decreased, All grades (Total, N = 9): 4 (44.4) n (%) | TEAE WBC count decreased, Grade ≥ 3 (Total, N = 9): 0 n (%) | discontinued treatment due to TEAEs (cohort 1, 45 mg/day): 2 patients | discontinued treatment due to TEAEs (cohort 2, 60 mg/day): 2 patients | discontinuation due to irAEs (during IDT): no discontinuation due to irAEs occurred during IDT | recurrence of Grade ≥ 3 irAEs and any grade irAEs leading to drug interruption (during IDT): 4/8
